Source: patent US8314112B2 (Novartis AG, priority 2008, dated 2012)

Molecular target: T1, human ALK5 (kinase domain, ALK5 T204D) (Homo sapiens, UniProt P36897, T204D)
T1 construct: The kinase domain of human ALK5 (amino acids 200-503); made in house; host or cells: insect cells (baculovirus)
T1 sequence (P36897 200-503 T204D): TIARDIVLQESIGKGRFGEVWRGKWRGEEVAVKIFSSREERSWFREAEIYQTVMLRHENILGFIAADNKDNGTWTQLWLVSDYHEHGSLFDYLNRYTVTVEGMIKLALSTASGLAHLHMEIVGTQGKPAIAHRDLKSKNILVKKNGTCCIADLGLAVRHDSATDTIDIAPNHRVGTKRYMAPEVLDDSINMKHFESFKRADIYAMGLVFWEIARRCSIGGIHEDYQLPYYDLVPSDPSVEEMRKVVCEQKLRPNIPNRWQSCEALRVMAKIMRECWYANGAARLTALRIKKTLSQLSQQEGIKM
Experiment: ALK5 kinase assay ([33P] phosphate incorporation into casein)
Assay type: biochemical
Settings: casein substrate, 1 μM unlabelled ATP
Method: The kinase activity of ALK5 is assessed by measuring radiolabelled phosphate [33P] incorporation in to the generic substrate, casein. The kinase domain of human ALK5 (amino acids 200-503) is fused to an N-terminal histidine tag. The kinase activity of ALK5 is rendered constitutive via point mutation at amino acid 204 (threonine to aspartate modification, ALK5 T204D) and the kinase construct is engineered to be expressed from a baculovirus expression construct in insect cells. The purified, recombinantly-expressed histidine-tagged ALK5 T204D protein is dissolved at 5.4 mg/ml in 50 mM Tris-HCl pH 8.0, 150 mM NaCl, 5 mM DTT. ALK5 T204D is dissolved to 2.5 μg/ml in assay buffer (Assay buffer: 20 mM Tris-HCl pH 7.4, 10 mM MgCl2, 2 mM MnCl2) on the day of use.
Test compounds and reference compounds are dissolved in assay buffer without DTT containing 5% (v/v) DMSO. Stock solutions of test and reference compounds are diluted in assay buffer with DTT (1.25 mM) containing 4.5% (v/v) DMSO. 10 μl of test or reference compound are added to the appropriate wells of 96 well U-bottomed plate. Total enzyme activity is determined by measuring ALK5 T204D activity in the absence of ALK5 kinase inhibitor reference compounds. Non-specific binding (NSB) is determined by measuring the activity of ALK5 T204D in the presence of ALK5 kinase inhibitor reference compounds. 10 μl of dephosphorylated casein stock solution (dephosphorylated casein is dissolved in ddH2O at 20 mg/ml) is added per well (200 μg/well final assay concentration). 20 μl of ALK5 T204D (2.5 μg/ml solution) is added per well (50 ng/well final assay concentration). The plates are left to incubate at room temperature for 10 minutes.
10 μl of ATP mix is added to the well to initiate the reaction (0.66 nM [^33P]ATP/1 μM unlabelled ATP/well final assay concentration). The ATP mix is prepared as follows, unlabelled ATP (3 mM) is dissolved in ddH2O and pH adjusted to 7.4. The stock concentration of [^33P]ATP is 10 μCi/μl. The appropriate volume of [^33P]ATP is added to unlabelled ATP solution such that the final assay concentration per well is 0.1 μCi. Following addition of the ATP mix, the plates are incubated at room temperature for 50 minutes. The kinase reaction is terminated by the addition of 50 μL Stop Buffer (20 mM Tris-HCl pH 7.4, 10 mM EDTA).
75 μl/well from the reaction plate is transferred to a Multiscreen-IP plate (MultiScreen-IP plates are prepared by added 50 μL of 70% (v/v) ethanol per well and incubated for 5 minutes at room temperature. The ethanol is removed by aspiration via a MultiScreen HTS Vaccum Manifold unit (Millipore, Cat no: MSVMHT500). The plates are washed twice by adding 200 μl/well ddH2O). The MultiScreen-IP plate is incubated at room temperature for 30 minutes to allowing binding of casein to the plate. The MultiScreen-IP plates are washed three times by adding 200 μl/well 100 mM phosphoric acid solution and the gasket is carefully removed from the back of the MultiScreen-IP plate and the plate dried in the oven for 30 minutes. The MultiScreen-IP plate is backsealed, 50 μL of Microscint™20 is added, then the plates are topsealed and radiolabelled casein detected and quantified on a TopCount™ plate-reader using the ^33P scintillation protocol.

| Structure (SMILES) | IC50 [nM] |
| --- | --- |
| Cc1cccc(-c2nc(-c3cccnc3)c3cc[nH]c3n2)n1 [Example 2, 2-(6-methyl-pyridin-2-yl)-4-pyridin-3-yl-7H-pyrrolo[2,3-d]pyrimidine] | 380 |
| Cc1cccc(-c2nc(-c3cncc(-c4ccccc4)c3)c3cc[nH]c3n2)n1 [Example 4, 2-(6-Methyl-pyridin-2-yl)-4-(5-phenyl-pyridin-3-yl)-7H-pyrrolo[2,3-d]pyrimidine] | 34 |
| COc1ccccc1-c1cncc(-c2nc(-c3cccc(C)n3)nc3[nH]ccc23)c1 [Example 8, 4-[5-(2-Methoxy-phenyl)-pyridin-3-yl]-2-(6-methyl-pyridin-2-yl)-7H-pyrrolo[2,3-d]pyrimidine] | 478 |
| CCNC(=O)c1cncc(-c2nc(-c3cccc(C)n3)nc3[nH]ccc23)c1 [Example 11, N-Ethyl-5-[2-(6-methyl-pyridin-2-yl)-7H-pyrrolo[2,3-d]pyrimidin-4-yl]-nicotinamide] | 367 |
| Cc1cccc(-c2nc(-c3cncc(C(=O)NCCCN(C)C)c3)c3cc[nH]c3n2)n1 [Example 13, N-(3-Dimethylamino-propyl)-5-[2-(6-methyl-pyridin-2-yl)-7H-pyrrolo[2,3-d]pyrimidin-4-yl]-nicotinamide] | 177 |
| Cc1cccc(-c2nc(-c3cncc(-c4ccc(N5CCCCC5)cc4)c3)c3cc[nH]c3n2)n1 [Example 17, 2-(6-Methyl-pyridin-2-yl)-4-[5-(4-piperidin-1-yl-phenyl)-pyridin-3-yl]-7H-pyrrolo[2,3-d]pyrimidine] | 929 |
| Cc1cccc(-c2nc(-c3cncc(-c4ccc(CN5CCN(C)CC5)cc4)c3)c3cc[nH]c3n2)n1 [Example 20, 4-{5-[4-(4-Methyl-piperazin-1-ylmethyl)-phenyl]-pyridin-3-yl}-2-(6-methyl-pyridin-2-yl)-7H-pyrrolo[2,3-d]pyrimidine] | 45 |
| Cc1cccc(-c2nc(-c3cncc(-c4cccnc4)c3)c3cc[nH]c3n2)n1 [Example 22, 5-[2-(6-Methyl-pyridin-2-yl)-7H-pyrrolo[2,3-d]pyrimidin-4-yl]-[3,3′]bipyridinyl] | 44 |
| Cc1cccc(-c2nc(-c3cncc(-c4ccccc4F)c3)c3cc[nH]c3n2)n1 [Example 24, 4-[5-(2-Fluoro-phenyl)-pyridin-3-yl]-2-(6-methyl-pyridin-2-yl)-7H-pyrrolo[2,3-d]pyrimidine] | 34 |
| CCC(=O)Nc1cncc(-c2nc(-c3cccc(C)n3)nc3[nH]ccc23)c1 [Example 27, N-{5-[2-(6-Methyl-pyridin-2-yl)-7H-pyrrolo[2,3-d]pyrimidin-4-yl]-pyridin-3-yl}-propionamide] | 723 |
| Cc1cccc(-c2nc(-c3cnc4ccccc4c3)c3cc[nH]c3n2)n1 [Example 28, 3-[2-(6-Methyl-pyridin-2-yl)-7H-pyrrolo[2,3-d]pyrimidin-4-yl]-quinoline] | 184 |

Further lines, results first:

| IC50 [nM] | Structure (SMILES) |
| --- | --- |
| 1180 | c1ccc(-c2nc(-c3cccnc3)c3cc[nH]c3n2)nc1 [Example 1, 4-Pyridin-3-yl-2-pyridin-2-yl-7H-pyrrolo[2,3-d]pyrimidine] |
| 130 | COc1cncc(-c2nc(-c3cccc(C)n3)nc3[nH]ccc23)c1 [Example 3, 4-(5-Methoxy-pyridin-3-yl)-2-(6-methyl-pyridin-2-yl)-7H-pyrrolo[2,3-d]pyrimidine] |
| 115 | COc1ccc(-c2cncc(-c3nc(-c4cccc(C)n4)nc4[nH]ccc34)c2)cc1 [Example 5, 4-[5-(4-Methoxy-phenyl)-pyridin-3-yl]-2-(6-methyl-pyridin-2-yl)-7H-pyrrolo[2,3-d]pyrimidine] |
| 32 | COc1cccc(-c2cncc(-c3nc(-c4cccc(C)n4)nc4[nH]ccc34)c2)c1 [Example 6, 4-[5-(3-Methoxy-phenyl)-pyridin-3-yl]-2-(6-methyl-pyridin-2-yl)-7H-pyrrolo[2,3-d]pyrimidine] |
| 45 | Cc1cccc(-c2nc(-c3cncc(-c4ccc(F)cc4)c3)c3cc[nH]c3n2)n1 [Example 7, 4-[5-(4-Fluoro-phenyl)-pyridin-3-yl]-2-(6-methyl-pyridin-2-yl)-7H-pyrrolo[2,3-d]pyrimidine] |
| 13 | Cc1cccc(-c2nc(-c3cncc(-c4ccc(C(=O)N5CCN(C)CC5)cc4)c3)c3cc[nH]c3n2)n1 [Example 9, (4-methyl-piperazin-1-yl)-(4-{5-[2-(6-methyl-pyridin-2-yl)-7H-pyrrolo[2,3-d]pyrimidin-4-yl]-pyridin-3-yl}-phenyl)-methanone] |
| 50 | Cc1cccc(-c2nc(-c3cncc(-c4cccc(CN5CCN(C)CC5)c4)c3)c3cc[nH]c3n2)n1 [Example 10, 4-{5-[3-(4-Methyl-piperazin-1-ylmethyl)-phenyl]-pyridin-3-yl}-2-(6-methyl-pyridin-2-yl)-7H-pyrrolo[2,3-d]pyrimidine] |
| 345 | Cc1cccc(-c2nc(-c3cncc(C(=O)NCCN(C)C)c3)c3cc[nH]c3n2)n1 [Example 12, N-(2-Dimethylamino-ethyl)-5-[2-(6-methyl-pyridin-2-yl)-7H-pyrrolo[2,3-d]pyrimidin-4-yl]-nicotinamide] |
| 160 | Cc1cccc(-c2nc(-c3cncc(-c4ccc(N5CCN(C(C)C)CC5)cc4)c3)c3cc[nH]c3n2)n1 [Example 15, 4-{5-[4-(4-Isopropyl-piperazin-1-yl)-phenyl]-pyridin-3-yl}-2-(6-methyl-pyridin-2-yl)-7H-pyrrolo[2,3-d]pyrimidine] |
| 1810 | Cc1cccc(-c2nc(-c3cncc(Br)c3)c3cc[nH]c3n2)n1 [Example 16, 4-(5-bromo-pyridin-3-yl)-2-(6-methyl-pyridin-2-yl)-7H-pyrrolo[2,3-d]pyrimidine] |
| 172 | Cc1cccc(-c2nc(-c3cncc(-c4cccc(N5CCCC5)c4)c3)c3cc[nH]c3n2)n1 [Example 18, 2-(6-Methyl-pyridin-2-yl)-4-[5-(3-pyrrolidin-1-yl-phenyl)-pyridin-3-yl]-7H-pyrrolo[2,3-d]pyrimidine] |
| 84 | Cc1cccc(-c2nc(-c3cncc(-c4ccncc4)c3)c3cc[nH]c3n2)n1 [Example 21, 5-[2-(6-Methyl-pyridin-2-yl)-7H-pyrrolo[2,3-d]pyrimidin-4-yl]-[3,4′]bipyridinyl] |
| 14 | Cc1cccc(-c2nc(-c3cncc(-c4cccc(O)c4)c3)c3cc[nH]c3n2)n1 [Example 23, 3-{5-[2-(6-Methyl-pyridin-2-yl)-7H-pyrrolo[2,3-d]pyrimidin-4-yl]-pyridin-3-yl}-phenol] |
| 223 | Cc1cccc(-c2nc(-c3cncc(C(=O)NCCCN4CCN(C)CC4)c3)c3cc[nH]c3n2)n1 [Example 25, N-[3-(4-Methyl-piperazin-1-yl)-propyl]-5-[2-(6-methyl-pyridin-2-yl)-7H-pyrrolo[2,3-d]pyrimidin-4-yl]-nicotinamide] |
| 465 | Cc1cccc(-c2nc(-c3cncc(C(=O)NCCCO)c3)c3cc[nH]c3n2)n1 [Example 26, N-(3-Hydroxy-propyl)-5-[2-(6-methyl-pyridin-2-yl)-7H-pyrrolo[2,3-d]pyrimidin-4-yl]-nicotinamide] |
| 11 | Cc1cccc(-c2nc(-c3cncc4ccccc34)c3cc[nH]c3n2)n1 [Example 29, 4-[2-(6-Methyl-pyridin-2-yl)-7H-pyrrolo[2,3-d]pyrimidin-4-yl]-isoquinoline] |
